Test results from patent publication US20260062412A1, “NITROGEN-CONTAINING HETEROCYCLIC COMPOUND HAVING MYT1 INHIBITORY ACTIVITY” (CHUGAI SEIYAKU KABUSHIKI KAISHA, priority 2023, published 2026).
pIC50: −log10 of the molar value.

How the values were obtained:
MYT1 protein [1] = biological target: T1, MYT1 protein (Homo sapiens (Human), UniProt Q99640); test: Test for binding to ATP binding site of MYT1 (Kinase Tracer 178 / Eu-Anti-GST antibody TR-FRET); conditions: ATP binding site of MYT1, 30 minutes at room temperature
T1 sequence (Q99640 whole entry): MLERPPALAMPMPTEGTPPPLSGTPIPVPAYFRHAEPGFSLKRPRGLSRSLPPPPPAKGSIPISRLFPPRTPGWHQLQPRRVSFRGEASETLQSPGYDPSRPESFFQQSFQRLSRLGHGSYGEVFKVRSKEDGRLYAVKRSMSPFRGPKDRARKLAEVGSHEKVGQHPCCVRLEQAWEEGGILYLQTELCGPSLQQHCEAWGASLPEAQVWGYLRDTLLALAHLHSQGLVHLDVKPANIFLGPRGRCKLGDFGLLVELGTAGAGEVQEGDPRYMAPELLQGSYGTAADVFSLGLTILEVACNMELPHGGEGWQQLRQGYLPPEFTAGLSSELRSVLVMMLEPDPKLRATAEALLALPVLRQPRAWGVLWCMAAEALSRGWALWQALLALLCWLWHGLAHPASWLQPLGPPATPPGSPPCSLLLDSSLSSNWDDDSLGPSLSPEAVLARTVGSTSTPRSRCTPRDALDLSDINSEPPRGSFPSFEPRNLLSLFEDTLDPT

MYT1 protein [2] = biological target: T1, MYT1 protein; test: MYT1 kinase activity inhibition test (ELISA, phosphorylation of Y15 of CDK1); type: biochemical; conditions: phosphorylation level of Y15 of CDK1 protein caused by MYT1 protein, 60 minutes
Description: The MYT1 kinase activity inhibitory capacity of each compound was evaluated by evaluating the phosphorylation level of Y15 of CDK1 protein caused by MYT1 protein, by ELISA. The kit of CycLex Weel Kinase Assay/Inhibitor Screening Kit Ver. 3 (manufactured by MBL, CY-1172V3) was used. Using Kinase Buffer, 10 μL of 5 nM MYT1 protein (manufactured by Carna Biosciences, Inc.) was prepared. In addition, 30 μL of 83.3 μM of ATP was prepared using Kinase Buffer. In addition, 10 μL of each compound was diluted to each concentration using Kinase Buffer. 30 μL of ATP was added to the plate of the kit, and thereafter, 10 μL of each compound was added thereto. Further, 10 μL of the diluted MYT1 protein solution was added thereto, and then the mixture was mixed, which was allowed to stand at room temperature for 60 minutes. The reaction solution was removed from each well, and each well was washed using Wash Buffer. After Wash Buffer was removed, 100 μL of HRP conjugated Anti-phospho-tyrosine antibody was added to each well, which was allowed to stand at room temperature for 60 minutes. Thereafter, the reaction solution was removed from each well, and each well was washed using Wash Buffer. After Wash Buffer was removed, 100 μL of Substrate Reagent was added to each well, which was allowed to stand at room temperature for 8 minutes. Thereafter, 100 μL of Stop Solution (1 N sulfuric acid) was added to each well according to the manual. Absorbances at 450 nm and 590 nm were measured using Envision (manufactured by PerkinElmer). The phosphorylation level of CDK1 protein was evaluated for each well by subtracting the absorbance at 590 nm from the absorbance at 450 nm. The inhibition rate of each compound added at each concentration was calculated by setting the signal when the compound was not added as 100% and the signal when MYT1 protein was not added as 0%, and the calculation results of IC50 were shown in Table 4.

LU65 = test: Cytotoxicity test with pemetrexed upon addition of each example compound (CellTiter-Glo); type: cell-based, human; conditions: combination with pemetrexed, LU65 cells, 7 days; maximum value, at the MYT1 inhibitor and pemetrexed concentrations
Description: LU65 (received from human tissue bank (JCRB Cell Bank)) was used in the evaluation of the present invention. LU65 is a lung cancer cell line having a truncated deletion mutation of S82* in RB1 gene (see Nature. 2019 May; 569(7757): 503-508. (Non Patent Literature 22)), in which the function of RB1 is decreased. The cell culture was carried out using RPMI-1640 (manufactured by SIGMA) containing 10% FBS (manufactured by SIGMA).
Each pemetrexed (manufactured by Tokyo Kasei Kogyo Co., Ltd.) and each example compound of each concentration were diluted using a DMSO solution, and 0.04 μL of each of series of dilution and DMSO was added to each well of cell culture plate using Echo 555 Liquid Handler (manufactured by Beckman Coulter Inc.). 1000 LU65 cells ([…]) were added to each well, which was cultured at 37° C. in a 5% CO2 incubator for 7 days. Intracellular ATP level which is a cell survival marker was measured and used in the monitoring of cell number. After culturing, 20 μL of CellTiter-Glo (registered trademark) 2.0 (manufactured by Promega) was added to each well, and the emission intensity was measured using Multimode Plate Reader En Vision (registered trademark) Xcite (manufactured by PerkinElmer). The cell survival rate under each condition was calculated by setting the value obtained by subtracting the luminescence of the cell unseeded well from the luminescence of the DMSO-added well as 100%, and calculating the proportion of a value obtained by subtracting the luminescence of the cell unseeded well from the luminescence detected at each well.
In addition, the cytotoxic activity under each condition was calculated by subtracting the survival rate in a combination of pemetrexed of each treatment concentration and each example compound of each treatment concentration, from 100%.

SMILES | pIC50 (MYT1 protein [1]) | pIC50 (MYT1 protein [2]) | Bliss Score (Max) (LU65) [%] | HSA Score (MAX) (LU65) [%]
Nc1c(-c2ccc(F)c3[nH]ncc23)c2cc(Br)c3ncccc3c2[nH]c1=O [Compound C1, 3-amino-6-bromo-4-(7-fluoro-1H-indazol-4-yl)-1H-1,7-phenanthrolin-2-one] | 8.70 | > 9.77 | 59 | 71
COc1cc2c(-c3ccc(F)c4[nH]ncc34)c(N)c(=O)[nH]c2c2cccnc12 [Compound C4, 3-Amino-4-(7-fluoro-1H-indazol-4-yl)-6-methoxy-1H-1,7-phenanthrolin-2-one] | 8.89 | 9.82 | 61 | 62
CCOc1cc2c(-c3ccc(F)c4[nH]ncc34)c(N)c(=O)[nH]c2c2cccnc12 [Compound C8, 3-Amino-6-ethoxy-4-(7-fluoro-1H-indazol-4-yl)-1H-1,7-phenanthrolin-2-one] | 8.80 | 9.52 | 68 | 78
CC(C)Oc1cc2c(-c3ccc(F)c4[nH]ncc34)c(N)c(=O)[nH]c2c2cccnc12 [Compound C13, 3-Amino-4-(7-fluoro-1H-indazol-4-yl)-6-propan-2-yloxy-1H-1,7-phenanthrolin-2-one] | 8.85 | 9.82 | 62 | 66
Nc1c(-c2ccc(F)c3[nH]ncc23)c2cc(F)c3ncccc3c2[nH]c1=O [Compound C64, 3-Amino-6-fluoro-4-(7-fluoro-1H-indazol-4-yl)-1H-1,7-phenanthrolin-2-one] | 8.13 | 9.70 | 45 | 54
COc1cc2c(-c3cc(F)c(F)c4[nH]ncc34)c(N)c(=O)[nH]c2c2cccnc12 [Compound C65, 3-Amino-4-(6,7-difluoro-1H-indazol-4-yl)-6-methoxy-1H-1,7-phenanthrolin-2-one] | 8.49 | 10.08 | 53 | 58
CCOc1cc2c(-c3cc(F)c(F)c4[nH]ncc34)c(N)c(=O)[nH]c2c2cccnc12 [Compound C67, 3-Amino-4-(6,7-difluoro-1H-indazol-4-yl)-6-ethoxy-1H-1,7-phenanthrolin-2-one] | 8.62 | 10.00 | 77 | 79
CC(C)Oc1cc2c(-c3cc(F)c(F)c4[nH]ncc34)c(N)c(=O)[nH]c2c2cccnc12 [Compound C69, 3-Amino-4-(6,7-difluoro-1H-indazol-4-yl)-6-propan-2-yloxy-1H-1,7-phenanthrolin-2-one] | 8.70 | 10.00 | 66 | 69
COc1cc2c(-c3cc(F)c(Cl)c4[nH]ncc34)c(N)c(=O)[nH]c2c2cccnc12 [Compound C76, 3-Amino-4-(7-chloro-6-fluoro-1H-indazol-4-yl)-6-methoxy-1H-1,7-phenanthrolin-2-one] | 8.82 | 10.04 | 68 | 67
Nc1c(-c2ccc(F)c3[nH]ncc23)c2cc(Cl)c3ncccc3c2[nH]c1=O [Compound C78, 3-Amino-6-chloro-4-(7-fluoro-1H-indazol-4-yl)-1H-1,7-phenanthrolin-2-one] | 8.51 | > 9.77 | 53 | 66

Further lines, with some results ahead:

pIC50 (MYT1 protein [1]) | pIC50 (MYT1 protein [2]) | SMILES | Bliss Score (Max) (LU65) [%] | HSA Score (MAX) (LU65) [%]
8.14 | 9.28 | Nc1c(-c2cccc(O)c2)c2cc(C3CC3)c3ccccc3c2[nH]c1=O [Compound B3, 3-Amino-6-cyclopropyl-4-(3-hydroxyphenyl)-1H-benzo[h]quinolin-2-one] | 78 | 77
7.96 | 9.60 | Nc1c(-c2ccc(F)c3[nH]ncc23)c2cc(C3CC3)c3ccccc3c2[nH]c1=O [Compound B22, 3-Amino-6-cyclopropyl-4-(7-fluoro-1H-indazol-4-yl)-1H-benzo[h]quinolin-2-one] | 56 | 64
8.08 | 9.59 | CCc1cc2c(-c3ccc(F)c4[nH]ncc34)c(N)c(=O)[nH]c2c2ccccc12 [Compound B23, 3-Amino-6-ethyl-4-(7-fluoro-1H-indazol-4-yl)-1H-benzo[h]quinolin-2-one] | 58 | 63
7.80 | 9.21 | Nc1c(-c2ccc(F)c3[nH]ncc23)c2cc(C3CCC3)c3ccccc3c2[nH]c1=O [Compound B24, 3-Amino-6-cyclobutyl-4-(7-fluoro-1H-indazol-4-yl)-1H-benzo[h]quinolin-2-one] | 52 | 60
8.52 | 9.59 | Nc1c(-c2ccc(F)c3[nH]ncc23)c2ccc3ccccc3c2[nH]c1=O [Compound B32, 3-Amino-4-(7-fluoro-1H-indazol-4-yl)-1H-benzo[h]quinolin-2-one] | 52 | 63
8.43 | 9.36 | Nc1c(-c2ccc(F)c3[nH]ncc23)c2cc(F)c3ccccc3c2[nH]c1=O [Compound B35, 3-Amino-6-fluoro-4-(7-fluoro-1H-indazol-4-yl)-1H-benzo[h]quinolin-2-one] | 61 | 70
8.22 | 9.12 | Nc1c(-c2ccc(Cl)c3[nH]ncc23)c2cc(C3CC3)c3ccccc3c2[nH]c1=O [Compound B37, 3-Amino-4-(7-chloro-1H-indazol-4-yl)-6-cyclopropyl-1H-benzo[h]quinolin-2-one] | 31 | 34
8.20 | 8.19 | Nc1c(-c2cccc3[nH]ncc23)c2ccc3ccccc3c2[nH]c1=O [Compound B46, 3-Amino-4-(1H-indazol-4-yl)-1H-benzo[h]quinolin-2-one] | 52 | 65
8.00 | 8.96 | Nc1c(-c2cccc3[nH]ncc23)c2cc(C3CC3)c3ccc(F)cc3c2[nH]c1=O [Compound B47, 3-Amino-6-cyclopropyl-9-fluoro-4-(1H-indazol-4-yl)-1H-benzo[h]quinolin-2-one] | 54 | 62
7.74 | 8.60 | Cl.Nc1c(-c2cccc3[nH]ncc23)c2cc(C3CC3)c3cc(F)ccc3c2[nH]c1=O [Compound B48, 3-Amino-6-cyclopropyl-8-fluoro-4-(1H-indazol-4-yl)-1H-benzo[h]quinolin-2-one; hydrochloride] | 66 | 70
8.21 | 8.19 | Nc1c(-c2cccc3[nH]ncc23)c2cc(C3CC3)c3ccccc3c2[nH]c1=O [Compound B49, 3-amino-6-cyclopropyl-4-(1H-indazol-4-yl)-1H-benzo[h]quinolin-2-one] | 86 | 84
8.62 | 9.70 | Nc1c(-c2ccc(F)c3[nH]ncc23)c2ccc3ncccc3c2[nH]c1=O [Compound C83, 3-Amino-4-(7-fluoro-1H-indazol-4-yl)-1H-1,7-phenanthrolin-2-one] | 54 | 66
